Columns and labels:
hexosaminidase = conditions: read-out: Ki against hexosaminidase; cited from earlier work
[1] = system: rabbit knee after ACL transection; assay: ACL transection (ACLT) osteoarthritis model in the rabbit knee, continuous intra-articular infusion; type: in vivo; conditions: 8 weeks after ACLT; for chondro-degenerative pathology to the knee joint: 30 mM via Alzet pump 2.5 μl/hour intra-articular, vs saline-treated animals
Method: The model used in this study is the transection of the anterior cruciate ligament (ACL) in the rabbit knee. ACL transection (ACLT) causes joint instability and subsequent development of degradative and osteoarthritis-like changes.
Female New Zealand White rabbits, 3.0-3.5 kg, were used and were randomly allocated into groups of 8 rabbits. Group A was the saline-treated control group; Group B was treated with 30 mM of the hexosaminidase inhibitor (2R,3R,4R,5R)-N-methyl-(2-acetamidomethyl-3,4-dihydroxy-5-hydroxymethyl)-pyrrolidine, which is also known as OPT-66. All the compounds were delivered by a 2ml Alzet osmotic pump (Alzet 2ML4, Alza, USA). The delivery rate from the pump was 2.5 μl/hour. All rabbits received ACLT surgery on the right knee.
All rabbits were anesthetized by an intramuscular injection of ketamine (35 mg/kg) and acepromazine (2.5 mg/kg). Knees were shaved and disinfected with Antibex (Vetoquinol S.A.) solution. A medial parapatellar incision was made on the skin and a medial arthrotomy was performed. The patella was dislocated laterally and the knee was placed in full flexion. The ACL was visualized and transected with a #15 blade. Complete transection was confirmed by a manual anterior drawer test. The joint was irrigated with sterile saline then closed. Before the closure of knee joint, an Alzet pump prefilled with compounds (either with saline or with the hexosaminidase inhibitor (2R,3R,4R,5R)-N-methyl-(2-acetamidomethyl-3,4-dihydroxy-5-hydroxymethyl)-pyrrolidine, also known as OPT-66, was implanted subcutaneously in the lower right abdomen of rabbits. The pump was connected by polyethylene tubing (ID: 0.58 mm), which was inserted into the right knee joint with its tip resting in the synovial space. The joint capsule was closed with a running suture and the tubing connecting the pump was also fixed into the tissue. The skin was closed with interrupted sutures. The Alzet pumps were replaced with fresh units at the end of the fourth week after the operation.
The animals were sacrificed eight (8) weeks after ACLT. The gross morphological changes of both knees, including joint swelling and joint fluid, were evaluated.
The grading of the joint swelling is as following: 0 (normal); 1 (mild), inflammation and/or proliferation of the joint capsule; 2 (moderate), thickening of joint capsule and/or inflammation of the synovium; 3 (severe) abundant inflammation of the synovium, swelling of the menisci or ligaments (anterior or posterior cruciate ligaments).

[2] = system: IL-1β-infused rabbit knee joint (tibial plateau cartilage); assay: IL-1β-induced sGAG loss in rabbit knee cartilage, continuous intra-articular infusion; type: in vivo
Method: Female New Zealand White rabbits, 3.0-3.5 kg, were used and were randomly allocated into groups of 8 rabbits. Under aseptic conditions, 2 ml Alzet osmotic pumps (delivery flow rate: 10 μl/h, (Alzet 2ML1, Alza, USA)) were filled with IL-1β (1000 U/ml; R&D Systems, USA). Separate 2 ml Alzet pumps were filled with 30 mM of the hexosaminidase inhibitor (2R,3R,4R,5R)-N-methyl-(2-acetamidomethyl-3,4dihydroxy-5-hydroxymethyl)-pyrrolidine, also known as OPT-66, or with saline. The Alzet pumps were implanted subcutaneously in the lower abdomen of rabbits, and were connected by a polyethylene tubing (ID: 0.025 in) threaded subcutaneously to the left knee joint with their tips resting in the synovial space. The untreated contralateral knees of all animals served as negative controls. IL-1β and (2R,3R,4R,5R)-N-methyl-(2-acetamidomethyl-3,4-diydroxy-5-hydroxymethyl)-pyrrolidine were infused intra-articularly for 7 days. Immediately before surgery, and for 3 consecutive days thereafter, Marbocyl, 6 mg/kg/day, is administered (i.m.) to prevent infection. Animals were harvested on day 7. […]
Blyscan dye (Biocolor, USA) was added to each tube and vortexed. […] The absorbance of the sample was then observed at 656 nm using a spectrophotometer. […] The absorbance of the blank was subtracted from each sample. Results are expressed as micrograms of sGAG recovered per milligram wet weight of cartilage tissue.

cultured chondrocytes = conditions: cited from earlier work

CC(=O)NCC1C(O)[C@H](O)C(CO)N1C (stereo partly drawn) [OPT-66, (2R,3R,4R,5R)-N-methyl-(2-acetamidomethyl-3,4-dihydroxy-5-hydroxymethyl)-pyrrolidine]
Ki (hexosaminidase): 24 nM | chondro-degenerative pathology to the knee joint [1]: consistently less chondro-degenerative pathology | chondro-degenerative pathology to the knee joint ([1]; listed as specific hexosaminidase inhibitor): chondroprotective benefit | severity of femur lesion scores ([1]; 30 mM via Alzet pump, vs saline-treated animals (FIG. 1)): statistically significant decrease | severity of tibia lesion scores ([1]; 30 mM via Alzet pump, vs saline-treated animals (FIG. 2)): statistically significant decrease | joint swelling grading ([1]; 30 mM via Alzet pump, vs saline-treated animals (FIG. 3)): trend towards decreased joint-swelling | synovial (joint) fluid grading ([1]; 30 mM via Alzet pump, vs saline-treated animals (FIG. 4)): normal levels of fluid in the knee joint | amount of recoverable sGAG per wet weight of left tibial plateau cartilage ([2]; IL-1β 1000 U/ml plus 30 mM inhibitor infused intra-articularly for 7 days (FIG. 5)): approximately 41 μg/mg | increase of recoverable sGAG over saline-treated knees ([2]; IL-1β plus 30 mM inhibitor infused intra-articularly for 7 days): 24% | cytokine-induced loss of GAGs (cultured chondrocytes): preventing cytokine-induced loss of GAGs

Source: US20070197471A1, “Treatment of degenerative cartilage conditions in a mammal with Glycosidasc Inhibitors” (Optimer Pharmaceuticals, Inc., priority 2004, published 2007)
